PubChem BioAssay (NCI)
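Dose response: 5 concentrations. Exposure: 48 h. Format: 96-well plates. Endpoint: linear interpolation; highest concentration if not reached. Definition used: TGI = concentration required for complete inhibition of growth.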

Legend:
Test in all cases: growth of human tumour cells (NCI), 48 h
786-0 renal = system: 786-0 renal
A498 renal = system: A498 renal
A549 NSCLC = system: A549 NSCLC
ACHN renal = system: ACHN renal
BT-549 breast = system: BT-549 breast
CAKI-1 renal = system: CAKI-1 renal
CCRF-CEM leukemia = system: CCRF-CEM leukemia
COLO 205 colon = system: COLO 205 colon
DU-145 prostate = system: DU-145 prostate
EKVX NSCLC = system: EKVX NSCLC
HCC-2998 colon = system: HCC-2998 colon
HCT-116 colon = system: HCT-116 colon
HCT-15 colon = system: HCT-15 colon
HL-60(TB) leukemia = system: HL-60(TB) leukemia
HOP-62 NSCLC = system: HOP-62 NSCLC
HOP-92 NSCLC = system: HOP-92 NSCLC
HS 578T breast = system: HS 578T breast
HT29 colon = system: HT29 colon
IGROV1 ovarian = system: IGROV1 ovarian
K-562 leukemia = system: K-562 leukemia
KM12 colon = system: KM12 colon
LOX IMVI melanoma = system: LOX IMVI melanoma
M14 melanoma = system: M14 melanoma
MALME-3M melanoma = system: MALME-3M melanoma
MDA-MB-231 breast = system: MDA-MB-231 breast
MDA-MB-435 = system: MDA-MB-435
MDA-N = system: MDA-N
MOLT-4 leukemia = system: MOLT-4 leukemia
NCI-H226 lung = system: NCI-H226 lung
NCI-H23 lung = system: NCI-H23 lung
NCI-H460 lung = system: NCI-H460 lung
NCI-H522 lung = system: NCI-H522 lung
NCI/ADR-RES ovarian = system: NCI/ADR-RES ovarian
OVCAR-3 ovarian = system: OVCAR-3 ovarian
OVCAR-4 ovarian = system: OVCAR-4 ovarian
OVCAR-5 ovarian = system: OVCAR-5 ovarian
OVCAR-8 ovarian = system: OVCAR-8 ovarian
PC-3 prostate = system: PC-3 prostate
RXF 393 renal = system: RXF 393 renal
SF-268 CNS = system: SF-268 CNS
SF-295 CNS = system: SF-295 CNS
SK-MEL-2 melanoma = system: SK-MEL-2 melanoma
SK-MEL-28 melanoma = system: SK-MEL-28 melanoma
SK-MEL-5 melanoma = system: SK-MEL-5 melanoma
SK-OV-3 ovarian = system: SK-OV-3 ovarian
SN12C renal = system: SN12C renal
SNB-19 CNS = system: SNB-19 CNS
SNB-75 CNS = system: SNB-75 CNS
SW-620 colon = system: SW-620 colon
T-47D breast = system: T-47D breast
U251 CNS = system: U251 CNS
UACC-257 melanoma = system: UACC-257 melanoma
UACC-62 melanoma = system: UACC-62 melanoma
UO-31 renal = system: UO-31 renal

For `C=CC(C)(C)n1cc(C2=C(O)C(=O)C(c3c(CC=C(C)C)[nH]c4ccccc34)=C(O)C2=O)c2ccccc21`, the TGI (786-0 renal) was 6.97 µM, the TGI (A498 renal) was 2.99 µM and the TGI (A549 NSCLC) was 7.85 µM. For the same molecule, the TGI (ACHN renal) was 4.32 µM, the TGI (BT-549 breast) was 1.91 µM and the TGI (CAKI-1 renal) was 7.16 µM. The TGI (CCRF-CEM leukemia) was 8.96 µM, the TGI (COLO 205 colon) was 3.23 µM and the TGI (DU-145 prostate) was 5.46 µM. For the same molecule, the TGI (EKVX NSCLC) was 6.01 µM, the TGI (HCC-2998 colon) was 2.33 µM and the TGI (HCT-116 colon) was 5.59 µM. It also gave a TGI (HCT-15 colon) of 7.6 µM, a TGI (HL-60(TB) leukemia) of 4.69 µM and a TGI (HOP-62 NSCLC) of 2.63 µM. The TGI (HOP-92 NSCLC) was 3.35 µM, the TGI (HS 578T breast) was 25 µM and the TGI (HT29 colon) was 7.36 µM. For the same molecule, the TGI (IGROV1 ovarian) was 2.45 µM, the TGI (K-562 leukemia) was 5.02 µM and the TGI (KM12 colon) was 2.63 µM. It also gave a TGI (LOX IMVI melanoma) of 5.38 µM, a TGI (M14 melanoma) of 4.24 µM and a TGI (MALME-3M melanoma) of 3.9 µM. For the same molecule, the TGI (MDA-MB-231 breast) was 7.78 µM, the TGI (MDA-MB-435) was 2.38 µM and the TGI (MDA-N) was 4.08 µM. For the same molecule, the TGI (MOLT-4 leukemia) was 9.51 µM, the TGI (NCI-H226 lung) was 3.64 µM and the TGI (NCI-H23 lung) was 19.6 µM. For the same molecule, the TGI (NCI-H460 lung) was 4.36 µM, the TGI (NCI-H522 lung) was 6.18 µM and the TGI (NCI/ADR-RES ovarian) was 9.09 µM. For the same molecule, the TGI (OVCAR-3 ovarian) was 3.05 µM, the TGI (OVCAR-4 ovarian) was 11.8 µM and the TGI (OVCAR-5 ovarian) was 10.1 µM. The TGI (OVCAR-8 ovarian) was 4.57 µM, the TGI (PC-3 prostate) was 4.78 µM and the TGI (RXF 393 renal) was 6.05 µM. For the same molecule, the TGI (SF-268 CNS) was 5.13 µM, the TGI (SF-295 CNS) was 4.1 µM and the TGI (SK-MEL-2 melanoma) was 3.41 µM. It also gave a TGI (SK-MEL-28 melanoma) of 2.03 µM, a TGI (SK-MEL-5 melanoma) of 4.1 µM and a TGI (SK-OV-3 ovarian) of 5.41 µM. It also gave a TGI (SN12C renal) of 3.6 µM, a TGI (SNB-19 CNS) of 10.8 µM and a TGI (SNB-75 CNS) of 4.1 µM. For the same molecule, the TGI (SW-620 colon) was 13.5 µM, the TGI (T-47D breast) was 7.59 µM and the TGI (U251 CNS) was 3.33 µM. The TGI (UACC-257 melanoma) was 9.3 µM, the TGI (UACC-62 melanoma) was 1.18 µM and the TGI (UO-31 renal) was 1.9 µM.
